# Patent US20240309028A1, “PHOSPHOLIPID COMPOUNDS AND METHODS OF MAKING AND USING THE SAME” (Gilead Sciences, Inc., priority 2023, published 2024)
# pEC50: −log10 of the molar value.
# Columns and labels:
# [1] = system: Respiratory syncytial virus recombinant with luciferase (RSV-Luc5); test: NHBE RSV-Luc5 384-well assay (EC50 RSVFLUC NHBE-384); assay type: cell-based; conditions: human respiratory syncytial virus, 72 h, read-out: EC50 RSV FLUC NHBE 384 V2 (per Ex. U)
# Excerpt: Example U. NHBE RSV-Luc5 384-Well Assay (EC50 RSVFLUC NHBE-384)
# Normal Human Bronchial Epithelial (NHBE) cells were purchased from Lonza (Walkersville, MD Cat #CC2540) and maintained in BEGM Bronchial Epithelial Cell Growth Medium BulletKit (Lonza CC-3170).
# Cells were thawed, expanded, and were used for experiments at passage 2. Respiratory syncytial virus recombinant with luciferase (RSV-Luc5) (≥1×107 Infectious Units/ml (IU/ml) determined by TCID50) was purchased from Microbiologics (Saint Cloud, MN). Viral replication was determined in NHBE cells in the following manner.
# Compounds are prepared in 100% DMSO in 384-well polypropylene plates (Greiner, Monroe, NC, Cat #784201) with 8 compounds per plate in grouped replicates of 4 at 10 serially diluted concentrations (1:3). The serially diluted compounds were transferred to low dead volume Echo plates (Labcyte, Sunnyvale, CA, Cat #LP-0200).
# The test compounds were spotted to 384-well assay plates (Greiner, Monroe, NC, Cat #781091) at 200 nL per well. NHBE cells were harvested and suspended in BEGM Bronchial Epithelial Cell Growth Medium BulletKit and seeded to the pre-spotted assay plates at 5,000 cells per well in 30 μL. RSV-Luc5 virus was diluted in BEGM Bronchial Epithelial Cell Growth Medium BulletKit at 500,000 Infectious Units (IU) per mL and 10 μL per well was added to the assay plates containing cells and compounds, for an MOI of 1. The assay plates were incubated for 3 days at 37° C. and 5% CO2. At the end of incubation, One-Glo reagent (Promega, Madison, WI, Cat #E6120) was prepared. The assay plates and One-Glo reagent were equilibrated to room temperature for at least 15 minutes. 40 μL per well of One-Glo reagent was added and the plates were incubated at room temperature for 15 minutes before reading the luminescence signal on an En Vision multimode plate reader (Perkin Elmer, Waltham, MA). Remdesivir was used as positive control and DMSO was used as negative control. Values were normalized to the positive and negative controls (as 0% and 100% replication, respectively) and data was fitted using non-linear regression analysis by Gilead's dose response tool. The EC50 value for each compound was defined as the concentration reducing the viral replication by 50%.
# [2] = system: RSV strain A2; test: RSV Cellomics assay for RSV A2 antiviral activity (EC50-RSV-Hep2-96-Cellomics); assay type: cell-based; conditions: human respiratory syncytial virus, HEp-2, 72 h; Hep2 cells, RSV strain A2, MOI=0.05, 3 days, RSV F protein immunofluorescence; read-out: EC50-RSV-HEp2-96-Cellomics Example B1
# Protocol: Example B1: RSV Cellomics Assay for RSV A2 Antiviral Activity (EC50-RSV-Hep2-96-Cellomics)
# 8×10^3 Hep2 cells are seeded into 96 well plates in 100 μL of media (DMEM supplemented with GlutaMAX, 10% FBS and Pen/Strep) and briefly spun at 50×g for 1 minute to attach cells. Cells were further allowed to attach with overnight incubation at 37° C.+5% CO2. The following day, the media was aspirated and 100 μL of fresh DMEM media containing 2% FBS was added. A three-fold dilution series of compounds of interest are then added to the plate using the Tecan D300e dispenser and the plate is normalized to the well with the highest volume of DMSO. The cells are next infected by adding 100 μL of media containing RSV strain A2 at an MOI=0.05 and the plates incubated for 3 days at 37° C.+5% CO2. Following the incubation, the media is removed, and the cells are washed once with 250 μL PBS and fixed with 250 μL ice-cold 100% methanol for 10 minutes at 4 C. The methanol is then removed and the plates air dried for 5 minutes and then washed once with 250 μL PBS to remove any residual methanol. The wells are then blocked 60 μL/well of BlockAid (B10710, Thermo-Fisher) for 1 hour at RT on rocker at which point the blocking buffer is carefully aspirated. Primary antibody against the RSV F protein (MAB 858-1) is then diluted 1:2000 in SuperBlock (37515, Thermo Fisher) and 50 μL of the primary antibody solution is added to each well. The plates are incubated at room temperature for 1 hour with gentle agitation and then washed with 250 μL of PBS-Tween 3 times. A goat anti-mouse AlexaFluor 647 conjugated secondary antibody (Sigma, A21235) is then diluted 1:2000 and Hoescht 33342 (H3570) at 1:1000 in SuperBlock and 50 μL added to the wells for 1 hour at 37° C. After incubation the antibody solution is aspirated, and the wells are then washed with 250 μL of PBS-Tween 3 times. To keep cells from drying out, 100 μL of PBS is added to each well and the plates are sealed with black plate seal. Fluorescence at the 647 nm wavelength is measured using a Cellomics CellInsight CX7 machine. Compound activity is determined as a percentage of the % positive cells (or average intensity) compared to DMSO treated RSV infected well controls following subtraction of uninfected controls. The EC50 values are then calculated using nonlinear regression analysis in GraphPad Prism.
Compound,pEC50 [1],pEC50 [2]
"N#Cc1cc(F)cc(CO[C@H](CCCCCCCCCCCCCCCCCC(F)(F)F)COP(=O)(O)OC[C@@]2(C#N)O[C@@H](c3ccc4c(N)ncnn34)[C@H](O)[C@@H]2O)c1 [Compound 10, ((2R,3S,4R,5S)-5-(4-aminopyrrolo[2,1-f][1,2,4]triazin-7-yl)-2-cyano-3,4-dihydroxytetrahydrofuran-2-yl)methyl ((R)-2-((3-cyano-5-fluorobenzyl)oxy)-20,20,20-trifluoroicosyl) hydrogen phosphate]",6.93,6.90
"N#Cc1cc(F)cc(CO[C@H](CCCCCCCCCCCCCCCCCCCC(F)(F)F)COP(=O)(O)OC[C@@]2(C#N)O[C@@H](c3ccc4c(N)ncnn34)[C@H](O)[C@@H]2O)c1 [Compound 8, ((2R,3S,4R,5S)-5-(4-aminopyrrolo[2,1-f][1,2,4]triazin-7-yl)-2-cyano-3,4-dihydroxytetrahydrofuran-2-yl)methyl ((R)-2-((3-cyano-5-fluorobenzyl)oxy)-22,22,22-trifluorodocosyl) hydrogen phosphate]",6.87,6.63
"N#Cc1cc(F)cc(CO[C@H](CCCCCCCCCCCCCCCCC(F)F)COP(=O)(O)OC[C@@]2(C#N)O[C@@H](c3ccc4c(N)ncnn34)[C@H](O)[C@@H]2O)c1 [Compound 4, ((2R,3S,4R,5S)-5-(4-aminopyrrolo[2,1-f][1,2,4]triazin-7-yl)-2-cyano-3,4-dihydroxytetrahydrofuran-2-yl)methyl ((R)-2-((3-cyano-5-fluorobenzyl)oxy)-19,19-difluorononadecyl) hydrogen phosphate]",6.97,6.77
"COc1cc(C#N)ccc1CO[C@@H](CCCCCCCCCCCCCCCCCC(F)(F)F)COP(=O)(O)OC[C@@]1(C#N)O[C@@H](c2ccc3c(N)ncnn23)[C@H](O)[C@@H]1O [Compound 9, ((2R,3S,4R,5S)-5-(4-aminopyrrolo[2,1-f][1,2,4]triazin-7-yl)-2-cyano-3,4-dihydroxytetrahydrofuran-2-yl)methyl ((S)-2-((4-cyano-2-methoxybenzyl)oxy)-20,20,20-trifluoroicosyl) hydrogen phosphate]",6.58,6.67
"CN(C)CCNc1cccc(CO[C@@H](CCCCCCCCCCCCCCCCCC(F)(F)F)COP(=O)(O)OC[C@@]2(C#N)O[C@@H](c3ccc4c(N)ncnn34)[C@H](O)[C@@H]2O)c1 [Compound 11, ((2R,3S,4R,5S)-5-(4-aminopyrrolo[2,1-f][1,2,4]triazin-7-yl)-2-cyano-3,4-dihydroxytetrahydrofuran-2-yl)methyl ((S)-2-((3-((2-(dimethylamino)ethyl)amino)benzyl)oxy)-20,20,20-trifluoroicosyl) hydrogen phosphate]",5.34,4.90
"N#Cc1cc(F)cc(CO[C@@H](CCCCCCCCCCCCCCCCC(F)(F)F)COP(=O)(O)OC[C@@]2(C#N)O[C@@H](c3ccc4c(N)ncnn34)[C@H](O)[C@@H]2O)c1 [Compound 6, ((2R,3S,4R,5S)-5-(4-aminopyrrolo[2,1-f][1,2,4]triazin-7-yl)-2-cyano-3,4-dihydroxytetrahydrofuran-2-yl)methyl ((S)-2-((3-cyano-5-fluorobenzyl)oxy)-19,19,19-trifluorononadecyl) hydrogen phosphate]",7.07,6.53
"N#C[C@]1(COP(=O)(O)OC[C@H](CCCCCCCCCCCCCCCCCC(F)(F)F)OCc2ccc3ccccc3n2)O[C@@H](c2ccc3c(N)ncnn23)[C@H](O)[C@@H]1O [Compound 7, ((2R,3S,4R,5S)-5-(4-aminopyrrolo[2,1-f][1,2,4]triazin-7-yl)-2-cyano-3,4-dihydroxytetrahydrofuran-2-yl)methyl ((S)-20,20,20-trifluoro-2-(quinolin-2-ylmethoxy)icosyl) hydrogen phosphate]",6.15,5.85
"N#C[C@]1(COP(=O)(O)OCCCCCCCCCCCCCCCCCCCC(F)(F)F)O[C@@H](c2ccc3c(N)ncnn23)[C@H](O)[C@@H]1O [Compound 5, ((2R,3S,4R,5S)-5-(4-aminopyrrolo[2,1-f][1,2,4]triazin-7-yl)-2-cyano-3,4-dihydroxytetrahydrofuran-2-yl)methyl (20,20,20-trifluoroicosyl) hydrogen phosphate]",5.35,5.47
"N#Cc1cc(F)cc(CO[C@@H](CCCCCCCCCCCCCCCCCC(F)(F)F)COP(=O)(O)OC[C@@]2(C#N)O[C@@H](c3ccc4c(N)ncnn34)[C@H](O)[C@@H]2O)c1 [Compound 3, ((2R,3S,4R,5S)-5-(4-aminopyrrolo[2,1-f][1,2,4]triazin-7-yl)-2-cyano-3,4-dihydroxytetrahydrofuran-2-yl)methyl ((S)-2-((3-cyano-5-fluorobenzyl)oxy)-20,20,20-trifluoroicosyl) hydrogen phosphate]",7.36,6.38
